Assay results taken from patent US8975400B2, “2,3-dihydroimidazo[1, 2-c] pyrimidin-5(1 H)-one compounds use as LP-PLA2 inhibitors” (Glaxo Group Limited, priority 2011, dated 2015).
Structures can show the parent of a compound that is named as a salt.

Legend:
Lp-PLA2 in human plasma = target: T1, Lp-PLA2 in human plasma (Homo sapiens, UniProt Q13093); test: Lp-PLA2 human plasma assay (Thio-PAF assay); type: biochemical; details: pooled human plasma, 2-thio-PAF substrate; read-out: pIC50 in the thio-PAF assay (converted)
T1 construct: This assay may detect the activity of Lp-PLA2 in human plasma; from tissue; host or cells: pooled human plasma
T1 sequence (Q13093 22-441): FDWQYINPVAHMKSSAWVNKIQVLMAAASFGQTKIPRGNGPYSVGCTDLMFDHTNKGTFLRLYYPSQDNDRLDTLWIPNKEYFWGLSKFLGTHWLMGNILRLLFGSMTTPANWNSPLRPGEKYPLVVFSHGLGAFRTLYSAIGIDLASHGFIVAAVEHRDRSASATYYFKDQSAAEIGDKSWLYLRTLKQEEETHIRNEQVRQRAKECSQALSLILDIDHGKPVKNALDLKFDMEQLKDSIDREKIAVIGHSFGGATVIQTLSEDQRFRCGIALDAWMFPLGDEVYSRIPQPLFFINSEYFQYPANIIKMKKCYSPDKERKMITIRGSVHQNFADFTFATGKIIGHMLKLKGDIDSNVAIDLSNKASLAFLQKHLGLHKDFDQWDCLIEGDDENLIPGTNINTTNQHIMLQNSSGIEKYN
Description: (3) Lipoprotein-Associated Phospholipase A2 (Lp-PLA2) Human Plasma Assay (Also Referred to as “Thio-PAF Assay”)
The human plasma assay utilizes a thioester analog of PAF (phosphatidylcholine), where hydrolysis yields to the formation of a phospholipid containing a free thiol group. The amount of thiol is quantitated continuously by reacting with CPM (7-diethylamino-3-(4′-maleimidylphenyl)-4-methylcoumarin), a maleimide which increases in fluoresence after Michael addition of thiols. This assay may detect the activity of Lp-PLA2 in human plasma, as determined by specific inhibition by Lp-PLA2 inhibitors.
The thio-PAF assay was run as a quenched 15 μL assay. Compounds source plate was prepared by making 1:3 (by volume) serial dilution of the compounds into pure DMSO on 384-well microplate. 0.01 μL of compounds on compound source plate were transferred to 384 well Greiner 784076 (black) low-volume plates by ECHO liquid dispenser. 8 μL pooled human plasma, which was previously aliquoted and frozen, was added. Plates were centrifuged for 10 sec at 500 rpm. After 30 minutes preincubation, 2 μL of substrate solution comprising 2.5 mM 2-thio-PAF [from ethanol stock], 32 μM CPM [from a DMSO stock] and 3.2 mM NEM (N-ethylmaleimide) [made fresh daily in DMSO] in assay buffer of 50 mM HEPES, pH 7.4, 150 mM NaCl, 1 mM CHAPS was added to 384 well Greiner 784076 (black) low-volume plates by BRAVO liquid handling station. After 2 mins, reaction was quenched with 5 μL of 5% aqueous trifluoroacetic acid (TFA). Plates were covered to protect from light and incubated for 40 min at room temperature. Plates were read at ex: 380/em: 485 using-Envision microplate reader. pIC50 data, curve and QC analysis was conducted by using XLFit module in Excel.

[1] = target: T2, recombinant human Lp-PLA2 (Homo sapiens, UniProt Q13093); test: Recombinant human Lp-PLA2 assay (rhLp-PLA2, PED6 assay); type: biochemical; details: recombinant human Lp-PLA2, PED6 substrate; upper limit for pIC50 in this assay is 9.3
T2 sequence (Q13093 22-441): T1 sequence (Q13093 22-441)
Description: (1) Recombinant Human Lp-PLA2 Assay (rhLp-PLA2) (Also Referred to as “PED6” Assay)
N-((6-(2,4-dinitrophenyl)amino)-hexanoyl)-2-(4,4-difluoro-5,7-dimethyl-4-bora-3a,4a-diaza-s-indacene-3-pentanoyl)-1-hexadecanoyl-sn-glycero-3-phosphoethanolamine, triethylammonium salt (PED6) is a commercially available fluorescently-labeled phospholipid, which is commercially available from Invitrogene and Molecular Probes. There is a quenching […] and a Bodipy fluorescein (FL) group in the sn2 position. Upon cleavage with Lp-PLA2, the Bodipy FL group is liberated and then may result in an increase in fluorescence. Inhibitors of Lp-PLA2 therefore prevent this cleavage and no fluorescent increase is observed.
The PED6 assay was run as an unquenched 10 μL assay. The source plate containing the compounds to be tested was prepared by making 1:3 (by volume) serial dilution of the compounds within DMSO on 384-well microplate. Then, 0.01 μL of the compounds on compound source plate were transferred into 384 well Greiner 784076 (black) plates using ECHO liquid dispenser. 5 µL of recombinant human Lp-PLA2 enzyme (4 nM (or 110 pM) rhLp-PLA2 in assay buffer of 50 mM HEPES, pH 7.4, 150 mM NaCl, 1 mM CHAPS) was added to each well of the plate. Plates were centrifuged for 10 sec at 500 rpm. After 30 minutes preincubation, 5 µL of substrate (4 μM (or 5 μM) PED6 [from 5 mM DMSO stock] in assay buffer of 50 mM HEPES, pH 7.4, 150 mM NaCl, 1 mM CHAPS) was added to 384 well Greiner 784076 (black) plates. Plates were centrifuged for 10 sec at 500 rpm. The plate was covered to protect it from light and incubated for 20 min at room temperature. The plates were read for fluorescence intensity at ex: 480/em: 540 using ViewLux microplate imager for Envision spectrofluroimeters pIC50 data, curve and QC analysis was conducted by using XL fit module in Excel.
The compounds described below were tested generally according to the PED6 assay described above.

| SMILES | IC50 (Lp-PLA2 in human plasma) | IC50 [1] |
| --- | --- | --- |
| CN1CCn2c1cc(OCc1ccc(Oc3ccc(Cl)c(C(F)(F)F)c3)c(C#N)c1)nc2=O [Example 101, 2-(4-chloro-3-(trifluoromethyl)phenoxy)-5-(((1-methyl-5-oxo-1,2,3,5-tetrahydro-imidazo[1,2-c]pyrimidin-7-yl)oxy)methyl)benzonitrile, trifluoroacetic acid salt] | ≤ 0.1 µM | ≤ 0.001 µM |
| N#Cc1ccc(Oc2ccc(COc3cc4n(c(=O)n3)CCN4)cc2F)cc1C(F)(F)F [Example 118, 4-(2-fluoro-4-(((5-oxo-1,2,3,5-tetrahydroimidazo[1,2-c]pyrimidin-7-yl)oxy)methyl)p-hen-oxy)-2-(trifluoromethyl)benzonitrile] | ≤ 0.1 µM | 0.000794 µM |
| CN1CCn2c1cc(OCc1ccc(Oc3ccc(Cl)c(Cl)c3)c(F)c1)nc2=O [Example E41, 7-((4-(3,4-dichlorophenoxy)-3-fluorobenzyl)oxy)-1-methyl-2,3-dihydroimidazo[1,2-c]pyrimidin-5(1H)-one] | ≤ 1 µM | ≤ 0.01 µM |
| CN1CCn2c1cc(OCc1ccc(Oc3ccc(F)c(F)c3)c(F)c1)nc2=O [Example E4, 7-((4-(3,4-difluorophenoxy)-3-fluorobenzyl)oxy)-1-methyl-2,3-dihydroimidazo[1,2-c]pyrimidin-5(1H)-one] | ≤ 0.1 µM | ≤ 0.001 µM |
| CN1CCn2c1cc(OCc1cc(F)c(Oc3ccc(F)c(C(F)(F)F)c3)c(F)c1)nc2=O [Example E81, 7-((3,5-difluoro-4-(4-fluoro-3-(trifluoromethyl)phenoxy)benzyl)oxy)-1-methyl-2,3-dihydroimidazo[1,2-c]pyrimidin-5(1H)-one] | ≤ 0.1 µM | ≤ 0.001 µM |
| CN1CCn2c1cc(OCc1cc(F)c(Oc3ccc(Cl)c(F)c3)c(F)c1)nc2=O [Example E86, 7-((4-(4-chloro-3-fluorophenoxy)-3,5-difluorobenzyl)oxy)-1-methyl-2,3-dihydroimi-dazo[1,2-c]pyrimidin-5(1H)-one] | ≤ 0.1 µM | ≤ 0.001 µM |
| CN1CCn2c1cc(OCc1ccc(Oc3ccc(Cl)c(F)c3)c(C#N)c1)nc2=O [Example E37, 2-(4-chloro-3-fluorophenoxy)-5-(((1-methyl-5-oxo-1,2,3,5-tetrahydroimidazo[1,2-c]pyrimidin-7-yl)oxy)methyl)benzonitrile, trifluoroacetic acid salt] | ≤ 1 µM | ≤ 0.01 µM |
| CC(C)N1CCn2c1cc(OCc1ccc(Oc3ccc(Cl)c(C(F)(F)F)c3)cc1)nc2=O [Example E59, 7-((4-(4-chloro-3-(trifluoromethyl)phenoxy)benzyl)oxy)-1-isopropyl-2,3-dihydroim-idazo[1,2-c]pyrimidin-5(1H)-one] | ≤ 0.1 µM | ≤ 0.01 µM |
| CN1CCn2c1cc(OCc1cc(F)c(Oc3cccc(Cl)c3)c(F)c1)nc2=O [Example E82, 7-((4-(3-chlorophenoxy)-3,5-difluorobenzyl)oxy)1-methyl-2,3-dihydroimidazo[1,2-c]pyrimidin-5(1H)-one] | ≤ 1 µM | ≤ 0.001 µM |
| CN1CCn2c1cc(OCc1cc(F)c(Oc3ccc(C(F)(F)F)cc3)c(F)c1)nc2=O [Example E84, 7-((3,5-difluoro-4-(4-(trifluoromethyl)phenoxy)benzyl)oxy)-1-methyl-2,3-dihydroimidazo[1,2-c]pyrimidin-5(1H)-one] | ≤ 1 µM | ≤ 0.01 µM |
| CN1CCn2c1cc(OCc1cc(F)c(Oc3ccc(C(F)(F)F)nc3)c(F)c1)nc2=O [Example E2, 7-((3,5-difluoro-4-((6-(trifluoromethyl)pyridin-3-yl)oxy)benzyl)oxy)-1-methyl-2,3-dihydroimidazo[1,2-c]pyrimidin-5(1H)-one] | ≤ 1 µM | ≤ 0.01 µM |
| O=c1nc(OCc2ccc(Oc3cc(F)c(F)c(F)c3)c(F)c2)cc2n1CCN2 [Example E77, 7-((3-fluoro-4-(3,4,5-trifluorophenoxy)benzyl)oxy)-2,3-dihydroimidazo[1,2-c]pyrimidin-5(1H)-one, trifluoroacetic acid salt] | ≤ 1 µM | ≤ 0.001 µM |
| CN1CCn2c1cc(OCc1ccc(Oc3cccc(C(F)(F)F)c3)c(F)c1)nc2=O [Example E20, 7-((3-fluoro-4-(3-(trifluoromethyl)phenoxy)benzyl)oxy)-1-methy-2,3-dihydroimid-azo[1,2-c]pyrimidin-5(1H)-one] | ≤ 1 µM | ≤ 0.01 µM |
| CN1CCn2c1cc(OCc1ccc(Oc3ccc(C(F)(F)F)cc3)c(C#N)c1)nc2=O [Example E24, 5-(((1-methyl-5-oxo-1,2,3,5-tetrahydroimidazo[1,2-c]pyrimidin-7-yl)oxy)methyl)-2-(4-(trifluoromethyl)phenoxy)benzonitrile, trifluoroacetic acid salt] | ≤ 1 µM | ≤ 0.01 µM |
| CN1CCn2c1cc(OCc1ccc(Oc3ccc(F)c(F)c3)c(C#N)c1)nc2=O [Example E34, 2-(3,4-difluorophenoxy)-5-(((1-methyl-5-oxo-1,2,3,5-tetrahydroimidazo[1,2-c]pyrimidin-7-yl)oxy)methyl)benzonitrile] | ≤ 0.1 µM | ≤ 0.01 µM |
| CN1CCn2c1cc(OCc1ccc(Oc3ccc(Cl)c(C#N)c3)c(F)c1)nc2=O [Example 125, 2-chloro-5-(2-fluoro-4-(((1-methyl-5-oxo-1,2,3,5-tetrahydroimidazo[1,2-c]pyrimidin-7-yl)oxy)methyl)phenoxy)benzonitrile] | ≤ 0.1 µM | ≤ 0.001 µM |
| CN1CCn2c1cc(OCc1ccc(Oc3ccnc(C(F)(F)F)c3)c(C#N)c1)nc2=O [Example E80, 5-(((1-methyl-5-oxo-1,2,3,5-tetrahydroimidazo[1,2-c]pyrimidin-7-yl)oxy)methyl)-2-((2-(trifluoromethyl)pyridin-4-yl)oxy)benzonitrile] | ≤ 0.1 µM | 0.00126 µM |
| N#Cc1cc(COc2cc3n(c(=O)n2)CCN3)ccc1Oc1ccc(C(F)(F)F)nc1 [Example 93, 5-(((5-oxo-1,2,3,5-tetrahydroimidazo[1,2-c]pyrimidin-7-yl)oxy)methyl)-2-((6-(trifluoromethyl)pyridin-3-yl)oxy)benzonitrile, trifluoroacetic acid salt] | ≤ 0.1 µM | ≤ 0.01 µM |
| CN1CCn2c1cc(OCc1ccc(Oc3ccnc(C(F)(F)F)c3)c(F)c1)nc2=O [Example 94, 7-((3-fluoro-4-((2-(trifluoromethyl)pyridin-4-yl)oxy)benzyl)oxy)-1-methyl-2,3-dihydroimidazo[1,2-c]pyrimidin-5(1H)-one] | ≤ 0.1 µM | 0.00158 µM |
| O=c1nc(OCc2ccc(Oc3ccc(F)c(C(F)(F)F)c3)c(F)c2)cc2n1CCN2 [Example E66, 7-((3-fluoro-4-(4-fluoro-3-(trifluoromethyl)phenoxy)benzyl)oxy)-2,3-dihydroimidaz-o[1,2-c]pyrimidin-5(1H)-one] | ≤ 0.1 µM | ≤ 0.001 µM |
